Measured values as given in patent US20060019971A1, “Treatment of cardiovascular disease with inhibitors of p38 kinase” (priority 2003, published 2006).
Entries after “also recorded” stand apart in the source; their conditions may differ.

Test system: COX-2 mRNA in HPBMCs
Test: COX-2 gene expression in HPBMCs, real-time PCR
Assay type: cell-based, human
Conditions: 6 hours
Description: 5×10^6 HPBMCs were plated in 6-well. After 1 hour medium was removed and cells were treated with vehicle or 1 μM p38 inhibitor in RPMI 1640 medium. After 1 hour cells were stimulated with 10% FCS only or 10 μg/ml CRP plus 10% FCS. After 6 hours RNA was extracted from the cells and COX-2 gene expression level was determined by real-time PCR as described in the Experimental section.
Cryopreserved human peripheral blood monocytes (HPBMCs, from Biowitker, Walkersvill, Md.) were thawed and washed twice in RPMI 1640. Cells were plated in tissue culture plates and incubated in 5% CO2 at 37 C. After 1 hr media were removed and cells were treated with various treatments. After 2 to 20 hours conditioned media and/or cell lysates were collected for the analyses of secreted cytokines, protein or mRNA expression. […]
RNA was extracted from the cells using Qiagen RNA extraction kit according to the manufacturer's instruction. The expression of pro-inflammatory genes IL-1β, IL-6, IL-8, TNFα, COX-2, ET-1, TF were assessed by real-time PCR. […]
Real-time RT-PCR was performed in a two-step manner. cDNA synthesis and real-time detection were carried out in a PTC-100™ Thermal Cycler (MJ Research Inc, Waltham, Mass.) and an ABI Prism™ 7700 Sequence Detection System (Applied Biosystems, Foster City, Calif.), respectively. […] Relative quantitation of gene expression was performed using the relative standard curve method. […]

C[C@@H]1CN(Cc2ccc(F)cc2)[C@@H](C)CN1C(=O)c1cc2c(C(=O)C(=O)N(C)C)c[nH]c2cc1Cl [Compound 162] was tested, and the “inhibition of CRP-invoked COX-2 mRNA expression” value (1 μM SD pre-treatment, listed as SD) was “almost completely blocked; also recorded: almost completely inhibited” and the “inhibition of FCS induced COX-2 mRNA” value (1 μM SD) was “completely inhibited”.
